Assays:
Experiment in all cases: Test D pre-/postemergence plant response
Assay type in all cases: in vivo
Conditions in all cases: Postemergence
kochia (Kochia scoparia) = system: kochia (Kochia scoparia)
Procedure, shortened: (§1)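 Under greenhouse conditions for 14 to 21 days, plants treated pre- or postemergence with surfactant-formulated compound were compared by eye with untreated controls and scored 0–100 (100 = complete control; dash = no result).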

[1] = system: purslane (common purslane, Portulaca oleracea)
Procedure, shortened: as §1

[2] = system: sandbur (southern sandbur, Cenchrus echinatus)
Procedure, shortened: as §1

[3] = system: morningglory (pitted morningglory, Ipomoea lacunosa)
Procedure, shortened: as §1

[4] = system: johnsongrass (Sorghum halepense)
Procedure, shortened: as §1

[5] = system: goosegrass (Eleusine indica)
Procedure, shortened: as §1

[6] = system: field bindweed (Convolvulus arvensis)
Procedure, shortened: as §1

[7] = system: guineagrass (Panicum maximum)
Procedure, shortened: as §1

[8] = system: quackgrass (Elytrigia repens)
Procedure, shortened: as §1

[9] = system: dallisgrass (Paspalum dilatatum)
Procedure, shortened: as §1

[10] = system: groundsel (common groundsel, Senecio vulgaris)
Procedure, shortened: as §1

[11] = system: large crabgrass (Digitaria sanguinalis)
Procedure, shortened: as §1

[12] = system: bermudagrass (Cynodon dactylon)
Procedure, shortened: as §1

[13] = system: signalgrass (broadleaf signalgrass, Brachiaria platyphylla)
Procedure, shortened: as §1

[14] = system: bluegrass (annual bluegrass, Poa annua)
Procedure, shortened: as §1

[15] = system: mallow (common mallow, Malva sylvestris)
Procedure, shortened: as §1

[16] = system: chickweed (common chickweed, Stellaria media)
Procedure, shortened: as §1

[17] = system: nutsedge (purple nutsedge, Cyperus rotundus)
Procedure, shortened: as §1

[18] = 62 g ai/ha, scale 0 to 100 (0 no effect, 100 complete control)
[19] = 125 g ai/ha, scale 0 to 100 (0 no effect, 100 complete control)
[20] = 250 g ai/ha, scale 0 to 100 (0 no effect, 100 complete control)
[21] = 31 g ai/ha, scale 0 to 100 (0 no effect, 100 complete control)

With `CCCCn1c(-c2cc(F)cc(F)c2)ncc(C(=O)C2=C(O)C3CCC(C3)C2=O)c1=O` (centres unmarked) [Compound 245] the “Plant response rating, Kochia” value (kochia (Kochia scoparia); 31 g ai/ha, scale 0 to 100) was 50, the “Plant response rating, Kochia” value (kochia (Kochia scoparia); [18]) was 65 and the “Plant response rating, Kochia” value (kochia (Kochia scoparia); [19]) was 70. The “Plant response rating, Kochia” value (kochia (Kochia scoparia); [20]) was 75, the “Plant response rating, Purslane” value ([1]; 31 g ai/ha, scale 0 to 100) was 0 and the “Plant response rating, Purslane” value [1, 18] was 5. For the same compound, the “Plant response rating, Purslane” value [1, 19] was 30, the “Plant response rating, Purslane” value [1, 20] was 30 and the “Plant response rating, Sandbur” value ([2]; 31 g ai/ha, scale 0 to 100) was 65. The “Plant response rating, Sandbur” value [2, 18] was 70, the “Plant response rating, Sandbur” value [2, 19] was 75 and the “Plant response rating, Sandbur” value [2, 20] was 75. The “Plant response rating, Morningglory” value ([3]; 31 g ai/ha, scale 0 to 100) was 70, the “Plant response rating, Morningglory” value [3, 18] was 75 and the “Plant response rating, Morningglory” value [3, 19] was 80. The “Plant response rating, Morningglory” value [3, 20] was 80, the “Plant response rating, Johnsongrass” value ([4]; 31 g ai/ha, scale 0 to 100) was 70 and the “Plant response rating, Johnsongrass” value [4, 18] was 75. The “Plant response rating, Johnsongrass” value [4, 19] was 75, the “Plant response rating, Johnsongrass” value [4, 20] was 75 and the “Plant response rating, Goosegrass” value ([5]; 31 g ai/ha, scale 0 to 100) was 70. For the same compound, the “Plant response rating, Goosegrass” value [5, 18] was 70, the “Plant response rating, Goosegrass” value [5, 19] was 70 and the “Plant response rating, Goosegrass” value [5, 20] was 75. For the same compound, the “Plant response rating, Field Bindweed” value ([6]; 31 g ai/ha, scale 0 to 100) was 50, the “Plant response rating, Field Bindweed” value [6, 18] was 50 and the “Plant response rating, Field Bindweed” value [6, 19] was 60. The “Plant response rating, Field Bindweed” value [6, 20] was 70, the “Plant response rating, Guineagrass” value ([7]; 31 g ai/ha, scale 0 to 100) was 75 and the “Plant response rating, Guineagrass” value [7, 18] was 75. For the same compound, the “Plant response rating, Guineagrass” value [7, 19] was 75, the “Plant response rating, Guineagrass” value [7, 20] was 85 and the “Plant response rating, Quackgrass” value ([8]; 31 g ai/ha, scale 0 to 100) was 20. The “Plant response rating, Quackgrass” value [8, 18] was 35, the “Plant response rating, Quackgrass” value [8, 19] was 40 and the “Plant response rating, Quackgrass” value [8, 20] was 65. For the same compound, the “Plant response rating, Dallisgrass” value ([9]; 31 g ai/ha, scale 0 to 100) was 65, the “Plant response rating, Dallisgrass” value [9, 18] was 75 and the “Plant response rating, Dallisgrass” value [9, 19] was 80. The “Plant response rating, Dallisgrass” value [9, 20] was 85, the “Plant response rating, Groundsel” value ([10]; 31 g ai/ha, scale 0 to 100) was 95 and the “Plant response rating, Groundsel” value [10, 18] was 100. The “Plant response rating, Groundsel” value [10, 19] was 100, the “Plant response rating, Groundsel” value [10, 20] was 100 and the “Plant response rating, Crabgrass, Large” value ([11]; 31 g ai/ha, scale 0 to 100) was 70. For the same compound, the “Plant response rating, Crabgrass, Large” value [11, 18] was 70, the “Plant response rating, Crabgrass, Large” value [11, 19] was 75 and the “Plant response rating, Crabgrass, Large” value [11, 20] was 75. The “Plant response rating, Bermudagrass” value ([12]; 31 g ai/ha, scale 0 to 100) was 80, the “Plant response rating, Bermudagrass” value [12, 18] was 80 and the “Plant response rating, Bermudagrass” value [12, 19] was 80. The “Plant response rating, Bermudagrass” value [12, 20] was 80, the “Plant response rating, Signalgrass” value ([13]; 31 g ai/ha, scale 0 to 100) was 10 and the “Plant response rating, Signalgrass” value [13, 18] was 40. The “Plant response rating, Signalgrass” value [13, 19] was 50, the “Plant response rating, Signalgrass” value [13, 20] was 75 and the “Plant response rating, Bluegrass” value ([14]; 31 g ai/ha, scale 0 to 100) was 5. The “Plant response rating, Bluegrass” value [14, 18] was 20, the “Plant response rating, Bluegrass” value [14, 19] was 35 and the “Plant response rating, Bluegrass” value [14, 20] was 35. The “Plant response rating, Mallow” value ([15]; 31 g ai/ha, scale 0 to 100) was 35, the “Plant response rating, Mallow” value [15, 18] was 50 and the “Plant response rating, Mallow” value [15, 19] was 50. The “Plant response rating, Mallow” value [15, 20] was 70, the “Plant response rating, Chickweed” value ([16]; 31 g ai/ha, scale 0 to 100) was 5 and the “Plant response rating, Chickweed” value [16, 18] was 25. The “Plant response rating, Chickweed” value [16, 19] was 50, the “Plant response rating, Chickweed” value [16, 20] was 50 and the “Plant response rating, Nutsedge, Purple” value ([17]; 31 g ai/ha, scale 0 to 100) was 5. The “Plant response rating, Nutsedge, Purple” value [17, 18] was 5, the “Plant response rating, Nutsedge, Purple” value [17, 19] was 5 and the “Plant response rating, Nutsedge, Purple” value [17, 20] was 20.
For `COCCn1c(-c2ccsc2)ncc(C(=O)C2=C(O)C3CCC(C3)C2=O)c1=O` (centres unmarked) [Compound 228], the “Plant response rating, Kochia” value (kochia (Kochia scoparia); [19]) was 75, the “Plant response rating, Purslane” value [1, 19] was 35 and the “Plant response rating, Sandbur” value [2, 19] was 5. For the same compound, the “Plant response rating, Morningglory” value [3, 19] was 50, the “Plant response rating, Johnsongrass” value [4, 19] was 70 and the “Plant response rating, Goosegrass” value [5, 19] was 70. For the same compound, the “Plant response rating, Field Bindweed” value [6, 19] was 70, the “Plant response rating, Guineagrass” value [7, 19] was 15 and the “Plant response rating, Quackgrass” value [8, 19] was 5. The “Plant response rating, Dallisgrass” value [9, 19] was 5, the “Plant response rating, Groundsel” value [10, 19] was 100 and the “Plant response rating, Crabgrass, Large” value [11, 19] was 75. For the same compound, the “Plant response rating, Bermudagrass” value [12, 21] was 70, the “Plant response rating, Bermudagrass” value [12, 19] was 70 and the “Plant response rating, Signalgrass” value [13, 19] was 20. For the same compound, the “Plant response rating, Bluegrass” value [14, 21] was 0, the “Plant response rating, Bluegrass” value [14, 19] was 5 and the “Plant response rating, Mallow” value [15, 19] was 65. For the same compound, the “Plant response rating, Chickweed” value [16, 19] was 75 and the “Plant response rating, Nutsedge, Purple” value [17, 19] was 15.
